How the values were obtained:
[1] = target: T1, pre-formed Aβ42-AChE fibrils complex (Homo sapiens, UniProt P22303); test: Disaggregation of pre-formed Aβ42-AChE fibrils (ThT); type: biochemical; details: Aβ42 pre-aggregated with AChE for 2 days before co-incubation with AP5
T1 construct: purchased Roche (AChE); Aladdin (Aβ42) R005282 (AChE); A118755 (Aβ42)
Protocol: The effects of AP5 on Aβ fibril formation and pre-formed Aβ fibrils disaggregation were determined using a previously described method of Thioflavin T (ThT, T3516, Sigma Aldrich, St. Louis, MO, United States) fluorometry ([Jan et al., 2010]).
Supplementary materials and methods … ...1 […]
Supplementary Figure 1 … .....7
Supplementary Figure 2 … .....7
Supplementary materials and methods
Prepations ofspecimen for pharmacokinetics analysis
24 h afterdosing. Brains were collected at0, 0.25, 0.5,2, 4,8 and 24 h after administration.Plasma extractions were performed by adding 90 μL methanol and 2 μL internalstandard letrozole (500 ng/mL) to a30 µL plasma sample. […]
Then 90 μL methanol and 2 μL letrozolewere added to 30 µl brainhomogenates. The samples were vortexed for 3 min and centrifuged 15 min at25,000 g.The plasma and brainhomogenate were analyzed by UPLC-TSQ/MS (Thermo Fisher Scientific, Waltham, MA, USA). […]
To study the kinetics of Aβ-AChE fibril complex formation, 10 μM Aβ was mixed with AChE (R005282, Roche, Basel, Switzerland) and different concentrations AP5 and incubated with 10 μM ThT and 50 mM glycine-NaOH (pH 8.5) at 37°C, the ThT fluorescence was continually measured for 24 h at 30 min intervals. […] Fluorescence emission at485 nm was measured on a Spectra MAX GeminiXS fluorometerat an excitation wavelength of 450 nm. […]

[2] = tested on: Aβ plaque-associated microglia and astrocytes; test: Plaque-associated microglia and astrocytes (MOAB-2 with Iba1 or GFAP co-staining); type: in vivo, APP/PS1 mice
Protocol: APP/PS1 mice of ages 6 months were randomly divided into vehicle (APP/PS1, n = 10) and treatment groups (AP5, n = 10), which were intragastrically administered with AP5 (40 mg/kg) once daily for consecutive 5 months. AP5 was dissolved in distilled water containing 1% sodium carboxymethyl cellulose.
The fixed hemibrains were paraffin-embedded and sectioned in the coronal plane. The slices were deparaffinized with xylene and rehydrated by a series of gradient alcohols. Antigen retrieval through microwave boiling was performed with 10 mM sodium citrate solution at pH 6.0. The slices were cooled down to room temperature and then rinsed in PBS solution. […]
(1:100, BAF2655, R&D, Minneapolis, MN, USA). […] For the quantification of Aβ plaque-associated microglia and astrocyte, Iba1- and GFAP-immunopositive cells around plaques were counted. On each slide, ten plaques were randomly determined and the microglia (nuclei) in the immediate vicinity (two times the plaque diameter) of each plaque were counted. For colocalization of PSD95 and synaptophysin, images were analyzed with the puncta analyzer plugin with a minimum pixel specification of 4 in Image Jand thresholding was consistent for every image. […]
anti-synaptophysin (1:1000, 67864-1-lg, Proteintech) overnight at 4°C. […] Densitometric analysis was performed using Quantity One software (Bio-Rad, Berkeley, CA, USA). […]

T1 sequence (P22303 32-614, one chain of several): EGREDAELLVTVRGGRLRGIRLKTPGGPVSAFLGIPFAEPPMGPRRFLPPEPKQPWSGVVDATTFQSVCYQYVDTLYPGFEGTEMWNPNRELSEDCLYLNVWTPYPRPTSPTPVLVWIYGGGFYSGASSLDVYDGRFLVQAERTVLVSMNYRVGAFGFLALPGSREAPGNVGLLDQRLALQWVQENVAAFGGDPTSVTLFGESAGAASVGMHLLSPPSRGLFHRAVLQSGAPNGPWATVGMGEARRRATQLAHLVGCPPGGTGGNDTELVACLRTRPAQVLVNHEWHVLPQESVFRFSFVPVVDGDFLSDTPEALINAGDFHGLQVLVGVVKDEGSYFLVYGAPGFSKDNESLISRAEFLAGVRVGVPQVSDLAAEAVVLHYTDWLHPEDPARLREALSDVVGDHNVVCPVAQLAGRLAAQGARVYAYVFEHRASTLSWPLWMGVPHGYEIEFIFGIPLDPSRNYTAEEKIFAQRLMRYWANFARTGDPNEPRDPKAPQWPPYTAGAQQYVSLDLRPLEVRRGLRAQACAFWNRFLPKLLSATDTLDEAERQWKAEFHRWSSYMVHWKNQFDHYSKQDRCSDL

SMILES: CCN(C)C(=O)Oc1cccc(/C=C2\Cc3cc(OC)c(OC)cc3C2=O)c1 [AP5, (E)-3-((5,6-dimethoxy-1-oxo-1,3-dihydro-2H-inden-2-ylidene)-methyl)phenylethyl(methyl)carbamate]
- ThT fluorescence intensity, disaggregation of pre-formed Aβ42 fibrils [1]: marked decline of ThT fluorescence intensity
- number of astrocytes around Aβ plaque ([2]; MOAB-2 and GFAP co-staining): no statistical difference
- plaque-associated microglia ([2]; MOAB-2 and Iba1 co-staining): increased clustering of microglia surrounding a plaque

Reference: PMC9289467, “A Novel Multifunctional 5,6-Dimethoxy-Indanone-Chalcone-Carbamate Hybrids Alleviates Cognitive Decline in Alzheimer’s Disease by Dual Inhibition of Acetylcholinesterase and Inflammation” (Frontiers in Aging Neuroscience, 2022)
